The source of these data is patent US20210205329A1 (The University of North Carolina at Chapel Hill, priority 2018, published 2021).

For the experiment, the target named is T1, TLR2/MD-2 interaction (Mus musculus, UniProt Q9QUN7).
T1 construct: endogenous in cells; host or cells: RAW264.7
The experiment is described as follows: TLR2/MD-2 co-immunoprecipitation (negative control) in LPS-treated RAW264.7 cells. The format is cell-based. The following applies: 1.0 μM; LPS 1 μg/ml; 24 hrs post-treatment. The procedure: Co-Immunoprecipitation Assay RAW264.7 cells [treated with LPS (1 μg/ml), 3α,5α-THP (1 μM) or pregnenolone (1 μM)] were exposed to chemical protein crosslinking (Poulopoulos et al, 2009) at 24 hrs post-treatment. Briefly, the cells were incubated (20 min on ice) with 1 mM of the cleavable, membrane-permeable crosslinker DSP (Thermo Fisher Scientific, Cat. #PG82081). Rat VTA homogenates were incubated (20 min on ice) with 200 μM of DSP. The crosslinker was quenched in 1 M Tris buffer (pH 7.5) (to a final concentration of 10-20 mM), and the material was centrifuged at 21,000×g for 15 min. Proteins from the cells were extracted with Pierce IP Lysis Buffer (Thermo Fisher Scientific, Cat. #87787) supplemented with protease and phosphatase inhibitor cocktails (Sigma). Proteins from the VTA were extracted with CelLytic MT (dialyzable mild detergent, bicine and 150 mM NaCl; Sigma Aldrich, St. Louis, Mo., USA, Cat. #C3228) supplemented with protease and phosphatase inhibitor cocktails (Sigma) according to the manufacturers instructions. […]

T1 sequence (Q9QUN7 25-784): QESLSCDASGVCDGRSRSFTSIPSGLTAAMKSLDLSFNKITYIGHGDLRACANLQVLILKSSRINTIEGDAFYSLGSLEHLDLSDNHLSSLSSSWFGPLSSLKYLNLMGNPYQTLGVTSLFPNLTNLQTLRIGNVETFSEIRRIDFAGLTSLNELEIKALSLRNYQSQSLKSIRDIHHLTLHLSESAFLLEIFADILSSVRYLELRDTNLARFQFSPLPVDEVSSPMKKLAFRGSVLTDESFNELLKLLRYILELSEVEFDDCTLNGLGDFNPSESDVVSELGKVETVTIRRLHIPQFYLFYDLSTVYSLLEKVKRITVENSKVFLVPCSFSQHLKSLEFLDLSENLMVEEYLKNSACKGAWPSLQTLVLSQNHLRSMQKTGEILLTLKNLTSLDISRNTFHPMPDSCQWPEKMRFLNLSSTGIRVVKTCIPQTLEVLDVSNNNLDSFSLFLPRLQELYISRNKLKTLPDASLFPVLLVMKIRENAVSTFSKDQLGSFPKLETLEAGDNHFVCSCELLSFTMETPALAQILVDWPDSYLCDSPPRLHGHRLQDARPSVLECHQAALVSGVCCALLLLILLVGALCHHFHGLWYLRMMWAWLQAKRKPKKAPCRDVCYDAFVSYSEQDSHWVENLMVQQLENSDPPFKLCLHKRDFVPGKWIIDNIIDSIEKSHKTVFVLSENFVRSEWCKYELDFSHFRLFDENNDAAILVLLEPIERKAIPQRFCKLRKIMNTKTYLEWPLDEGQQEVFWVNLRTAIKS

`CC(=O)[C@H]1CC[C@H]2[C@@H]3CC[C@H]4C[C@H](O)CC[C@]4(C)[C@H]3CC[C@]12C` [3α,5α-THP, (3α,5α)3-hydroxypregnan-20-one]: the TLR2/MD-2 co-immunoprecipitation result was “not altered”. As for `CC(=O)[C@H]1CC[C@H]2[C@@H]3CC=C4C[C@@H](O)CC[C@]4(C)[C@H]3CC[C@]12C` [pregnenolone], the entry is “not altered”.
